Experiments:
IR-induced fibrosis = test: Lung histology (H&E stain, trichrome blue collagen stain) in IR-induced fibrosis; type: in vivo, mice; details: GA 40 mg/kg/q.o.d. for 3 months; 7 months after IR exposure at 15 Gy
Experimental: Briefly, mice treated with GA (40 mg/kg/q.o.d.) for 3 months were sacrificed 7 months after IR exposure at 15 Gy, and lung tissue specimens were stained using hematoxylin and eosin (H&E) stain. […] To assess whether GA reduces abnormal collagen deposition in lungs, lung tissue specimen was stained with collagen-binding trichrome blue dye.

hydroxyproline; TGFβ = test: Hydroxyproline and TGFβ levels in lungs; type: in vivo, mice
From the text: The reduction of collagen deposition was further analyzed by measuring the levels of hydroxyproline, a key component of collagen.

growth hormone (GH) = test: Plasma growth hormone by ELISA during long-term treatment
Experimental: In addition, plasma levels of growth hormone (GH) were measured using ELISA at Weeks 6, 7, and 10 after GA treatments.

IR-induced pneumonitis [1] = test: Sub-acute phase of IR-induced pneumonitis: lung tissue and bronchoalveolar lavage fluid (BALF) assays; type: in vivo, C57BL/6 fibrosis-prone mice
Experimental: Briefly, C57BL/6 fibrosis-prone mice received a thoracic IR and were treated as described in Example 2. The mice were sacrificed 17 days after IR exposure, and lung tissues were harvested. Bronchoalveolar lavage fluid (BALF) assays were performed.

[2] = Long-term toxicity observation (activity, fur morphology, body weight); type: in vivo
From the text: No mouse died during GA treatment.

[3] = system: IR-induced pulmonary fibrosis; test: Respiratory rate (rodent ventilator with pressure plethysmograph) in IR-induced pulmonary fibrosis; type: in vivo, mice; details: GA 30-40 mg/kg q.o.d. or twice/week for 3 months; 7 months after IR at 15 Gy, 5 months after IR at 18 Gy; P<0.05
Experimental: Mice exposed to thoracic IR develops pulmonary fibrosis 6 months after IR exposure at 18 Gy, 8 months after IR exposure at 15 Gy, and 10 months after IR exposure at 12.5 Gy. To access the treatment effects of GA on lung fibrosis and lung function, the respiratory rate, lung density, and lung compliance of the mice were determined. To assess improvement on respiratory function, mice exposed to thoracic IR at 15 Gy were treated with GA (30-40 mg/kg) q.o.d. or twice/week for 3 months. Mouse respiratory rate was measured using a Harvard rodent ventilator connected to a pressure plethysmograph.

[4] = system: inflammatory mediators (IMs), including IL1a, TNFa, PF4 and VCAM-1; test: Inflammatory mediators in lung homogenates by ELISA, acute phase of IR-induced pneumonitis; type: in vivo, C57BL/6 fibrosis-prone mice; details: 2.5 days after thoracic IR at 15 Gy, compared to vehicle-treated mice, p<0.05
Experimental: Briefly, C57BL/6 fibrosis-prone mice received a single-dose of thoracic IR at 15 Gy with a dose rate of 1.9 Gy/min. Six hours after IR exposure, the mice were divided into the following treatment groups: 1) normal (received 0 Gy; no treatment); 2) vehicle-treated; 3) GA-treated (30-40 mg/kg/ q.o.d) (i.e. every other day) (the GA dosage used herein was derived from the effective dosage for humans (3-4 mg/kg), which is typically 6-10 times lower than that of mice); 4) dexamethasone-treated (Positive Control 1) (Dex, 3 mg/kg, i.m. or p.o. qod); 5) amifostine-treated (Positive Control 2) (Ami, 200 mg/kg/ i.v, 0.5 hr prior to irradiation); and 6) celebrex-treated (Positive Control 3) (30 mg/kg, po, qod).
The mice were sacrificed 2.5 days after IR exposure, and fresh lung tissue homogenates were prepared using lysis buffer mixed with protenase inhibitor cocktails. After protein concentration was adjusted to 1 mg/ml, the fresh lung homogenates were added to ELISA plates at a concentration of 100 µl/well. The levels of inflammatory mediators were measured by ELISA.

[5] = system: IL1a, TNFa, lymphotactin and p-selectin; test: Inflammatory mediators, GA given 24 hours after IR exposure; type: in vivo, mice; details: GA administered 24 hours after IR exposure; thoracic IR at 5, 10 and 15 Gy
Experimental: The administration of GA 24 hours after IR exposure can effectively block the surge in inflammatory responses.

[6] = system: IR-induced pulmonary fibrosis; test: Lung density by cone beam CT scan (CBCT) in IR-induced pulmonary fibrosis; type: in vivo, mice; details: for abnormal increase in lung density: 7.5 months after IR exposure at 15 Gy (Figure 14), P<0.05
Experimental: To assess effects of GA on lung density, cone beam CT scan (CBCT) of mouse lungs was performed. CBCT provides a complete 3D 650×650×428 scan (i.e. 428 slices) of the lungs with isotropic resolution at 270 µm (central slice shown in Fig. 11) in 30 seconds. The scanner achieves a CT density sensitivity of ∼[…], and thus, changes in lung density can be discerned. The CBCT imaging data were further analyzed using MATLAB software. The lungs were automatically segmented (Fig. 12A) and a 3D image was generated for each mouse lung (Fig. 12B). To reduce the effect of cardiac motion on the mean value of lung density, boundaries of the lungs were not used for analysis. A histogram of voxel intensity (pulmonary tissue density) of each mouse was created (Fig. 13).

SP-D and IL1a = test: Plasma levels of SP-D and IL1a, acute phase of IR-induced pneumonitis; type: in vivo, C57BL/6 fibrosis-prone mice; details: 2.5 days after thoracic IR at 15 Gy; P<0.05
Experimental: IR damages lung epithelium and endothelium cells, and causes dysfunction of tight junction, increased cellular permeability, and the loss of integrity of the alveolar-capillary barrier. As a result, SP-D and ILla abnormally enter into the blood from inflamed pulmonary tissue, leading to elevated plasma levels of SP-D and IL1a. In this Example, C57BL/6 fibrosis-prone mice received a single-dose of thoracic IR at 15 Gy with a dose rate of 1.9 Gy/min and were treated as described in Example 2. The mice were sacrificed 2.5 days after IR exposure, and plasma levels of SP-D and IL1a were measured.

[7] = system: IR-induced pulmonary fibrosis; test: Lung compliance (plethysmograph pressure-volume measurements); type: in vivo, mice; details: 6.5 months after IR exposure at 15 Gy; P<0.05
Experimental: To assess the effects of GA on lung compliance, mice were anesthetized and their trachea were surgically exposed and incised. An 18-gauge, 1 cm stainless steel tube was inserted into the trachea and secured with surgical sutures. The respiratory rate and tidal volume of the mice were measured by a Harvard rodent ventilator. The average respiratory rate was 150 breaths per minute and the tidal volume was adjusted according to the weight (0.01 ml per gram body weight). The mice were then placed in a plethysmograph for pressure-volume measurements.

IR-induced pneumonitis [8] = test: Lung morphology: plasma exudation and inflammatory cell infiltration, acute phase of IR-induced pneumonitis; type: in vivo, C57BL/6 fibrosis-prone mice; details: 2.5 days after thoracic IR at 15 Gy
Experimental: Briefly, C57BL/6 fibrosis-prone mice received a single-dose of thoracic IR at 15 Gy with a dose rate of 1.9 Gy/min and were treated as described in Example 2. The mice were sacrificed 2.5 days after IR exposure, and lung tissues were harvested and analyzed for morphological changes.

IR-induced pneumonitis [9] = test: Clinical case: GLA tablets in a lung cancer patient receiving 2nd IR treatment; type: in vivo; details: one patient
Experimental: In collaboration with radiation oncologists at the First Affiliated Hospital of Fujian Medical School in China, GLA tablets (produced by Minophagen Co. in Japan and available in pharmacies in China) were administered to a patient who received their 2nd IR treatment for lung cancer. […] To control the progression of pneumonitis, they received dexamethasone treatment. Due to tumor re-growth 9 months after their 1st IR treatment, they received a 2nd IR treatment with warnings that IR may worsen pneumonitis. In order to mitigate IR-induced lung injury, GLA was administered at a dose of 150 mg per day (equivalent to GA about 85 mg per day) starting from the date of 2nd IR treatment for 3 months. The result was unexpectedly surprising.

[10] = system: ACTH (adrenocorticotropic hormone); details: in vivo
Experimental: The chemical structure of GA is similar to that of cortisol. Thus, this Example investigates whether the long-term use of GA would affect the production of cortisol and cause side effects. The plasma levels of ACTH (adrenocorticotropic hormone), a cortisol-releasing hormone, were measured using ELISA at Weeks 6, 7, and 10 after GA-treatments (40 mg/kg, qod, p.o).

pulmonary fibrosis = test: Inventors' observation on dexamethasone in pulmonary fibrosis; type: in vivo; details: compared to the non-treated controls
[11] = 17 days after IR exposure at 15 Gy, P<0.05
[12] = 17 days after IR exposure, P<0.05

For `CC1(C)[C@@H](O)CC[C@]2(C)[C@H]3C(=O)C=C4[C@@H]5C[C@@](C)(C(=O)O)CC[C@]5(C)CC[C@@]4(C)[C@]3(C)CC[C@@H]12` [GA, glycyrrhetinic acid], the “collagen deposition caused by IR exposure (trichrome blue dye)” value (IR-induced fibrosis) was “reduces”, the “lung morphology (H&E stain)” value (IR-induced fibrosis) was “near-normal morphology” and the “hydroxyproline levels in the lungs” value (hydroxyproline; TGFβ; compared to IR + vehicle control, P<0.05) was “reduced”. For the same molecule, the “level of TGFβ” value (hydroxyproline; TGFβ; pro-fibrotic factor, Figure 18B) was “reduced”, the “plasma GH level” value (growth hormone (GH); in vivo) was “increased” and the “infiltration of neutrophils into the interstitial fluid” value (IR-induced pneumonitis [1]; 17 days after IR exposure at 15 Gy) was “suppression”. For the same molecule, the “level of neutrophils infiltrated into the bronchoalveolar lavage fluid” value (IR-induced pneumonitis [1]; [11]) was “reduced”, the “myeloperoxidase (MPO) activity in (BALF)” value (IR-induced pneumonitis [1]; [11]) was “reduced” and the level of lymphotactin (IR-induced pneumonitis [1]; [12]) was “reduced”. For the same molecule, the level of p-selectin (IR-induced pneumonitis [1]; [12]) was “reduced”, the death during treatment ([2]; long-term use) was “No mouse died” and the “side effects of long-term use” value ([2]; mouse, in vivo) was “little side effects”. For the same molecule, the respiratory rate [3] was “effectively reduced”, the “levels of inflammatory mediators (IMs), including IL1a, TNFa, PF4 and VCAM-1” value (from here on “levels of inflammatory mediators (IMs)”) [4] was “effectively reduced” and the “levels of key inflammatory mediators including IL1a, TNFa, lymphotactin and p-selectin” value [5] was “potently reduced”. The “abnormal increase in lung density” value [6] was “significantly reduced”, the “Mean Density (HU)” value ([6]; lung density, 1 year post IR exposure at 18 Gy) was -458 HU and the “plasma levels of IL1a” value (SP-D and IL1a) was “effectively reduced”. The “plasma levels of SP-D” value (SP-D and IL1a) was “effectively reduced”, the lung compliance [7] was “potently, and mostly effectively, enhanced” and the “plasma exudation and inflammatory cell infiltration into the interstitial space” value (IR-induced pneumonitis [8]) was “potently suppressed”.
With `CC1(C)[C@@H](O[C@H]2O[C@H](C(=O)O)[C@@H](O)[C@H](O)[C@H]2O[C@@H]2O[C@H](C(=O)O)[C@@H](O)[C@H](O)[C@H]2O)CC[C@]2(C)[C@H]3C(=O)C=C4[C@@H]5C[C@@](C)(C(=O)O)CC[C@]5(C)CC[C@@]4(C)[C@]3(C)CC[C@@H]12` [GLA, glycyrrhizic acid] the “symptoms of pneumonitis or fibrosis” value (IR-induced pneumonitis [9]; 150 mg per day for 3 months from date of 2nd IR treatment) was “did not exhibit any symptom of pneumonitis or fibrosis” and the “lung density (CT)” value (IR-induced pneumonitis [9]; CT results of 1st versus 2nd IR treatment (Figure 20)) was “significantly reduced”.
With `NCCCNCCSP(=O)(O)O` [amifostine] the “levels of inflammatory mediators (IMs)” value [4] was “extent of inhibition by GA was comparable”.
With `Cc1ccc(-c2cc(C(F)(F)F)nn2-c2ccc(S(N)(=O)=O)cc2)cc1` [celebrex, reference compound] the “loss of body weight (BW)” value ([2]; 7.5 months post IR exposure at 15 Gy, vehicle-treated mice lost 6-7 grams) was “less severe loss of BW”, the “levels of inflammatory mediators (IMs)” value [4] was “extent of inhibition by GA was comparable” and the “abnormal increase in lung density” value [6] was “reduction in lung density by GA is more potent”.
In the case of `C[C@@H]1C[C@H]2[C@@H]3CCC4=CC(=O)C=C[C@]4(C)[C@@]3(F)[C@@H](O)C[C@]2(C)[C@@]1(O)C(=O)CO` [dexamethasone], the “plasma GH level” value (growth hormone (GH); measured at Weeks 6, 7, and 10) is reported as “increased”, the “reduction in ACTH levels” value [10] is reported as 10-50 fold and the “effect on pulmonary fibrosis” value (pulmonary fibrosis) is reported as “worsening of pulmonary fibrosis”.
